Results reported in PubChem BioAssay AID322 (DTP/NCI, 2004).
“And” between values parts separate entries of the source, which are not always exact repeats. Equal entries are not always repeated. Toxic doses and inconclusive results are not listed.

Test system: CD2F1 mice, P388/ADR leukemia ip, median survival T/C
Experiment: NCI In Vivo Anticancer Drug Screen. Data for tumor model P388 Leukemia resistant to Adriamycin; NSC 123127, Developed at Scr 08 (intraperitoneal) in CD2F1 (CDF1) mice
Conditions: endpoint: median survival time, higher = longer survival
Protocol: The antitumor activity of compounds was measured in mice bearing transplantable tumors. Survival or tumor size were measured and the results are expressed as the measurement made in the treated group (T) divided by the measurement made in the vehicle treated control group (C). The tumor model used in this assay is P388 Leukemia resistant to Adriamycin; NSC 123127, Developed at Scr 08 (intraperitoneal) in CD2F1 (CDF1) mice

[1] = dose: 150.0 mg/kg/injection, schedule: Q01DX005 (ip), vehicle: saline
[2] = dose: 300.0 mg/kg/injection, schedule: Q01DX005 (ip), vehicle: saline
[3] = dose: 6.25 mg/kg/injection, schedule: Q01DX005 (ip), vehicle: saline with Tween-80
[4] = dose: 12.5 mg/kg/injection, schedule: Q01DX005 (ip), vehicle: saline with Tween-80
[5] = dose: 100.0 mg/kg/injection, schedule: Q01DX005 (ip), vehicle: saline with Tween-80
[6] = dose: 50.0 mg/kg/injection, schedule: Q01DX005 (ip), vehicle: saline with Tween-80
[7] = dose: 3.12 mg/kg/injection, schedule: Q01DX005 (ip), vehicle: Klucel (hydroxypropylcellulose) (HPC)
[8] = dose: 6.25 mg/kg/injection, schedule: Q01DX005 (ip), vehicle: Klucel (hydroxypropylcellulose) (HPC)
[9] = dose: 12.5 mg/kg/injection, schedule: Q01DX005 (ip), vehicle: Klucel (hydroxypropylcellulose) (HPC)
[10] = dose: 25.0 mg/kg/injection, schedule: Q01DX005 (ip), vehicle: Klucel (hydroxypropylcellulose) (HPC)
[11] = dose: 50.0 mg/kg/injection, schedule: Q01DX005 (ip), vehicle: Klucel (hydroxypropylcellulose) (HPC)

C[C@H](N)C(=O)N[C@@H]1[C@H]2C(=C(O)C[C@@H](O)[C@@H]2O)C(=O)O[C@@H]1C
T/C [1]: 100 % of control and 105 % of control
T/C [2]: 100 % of control and 104 % of control
T/C (dose: 600.0 mg/kg/injection, schedule: Q01DX005 (ip), vehicle: saline): 98 % of control and 105 % of control
T/C (dose: 1200.0 mg/kg/injection, schedule: Q01DX005 (ip), vehicle: saline): 97 % of control and 103 % of control

O=[N+]([O-])c1ccc([I+]c2ccccc2)cc1
T/C [3]: 124 % of control
T/C [4]: 124 % of control
T/C [5]: 155 % of control

O=NN(CCCl)C(=O)NCCCl
T/C (dose: 5.0 mg/kg/injection, schedule: Q01DX001 (ip), vehicle: saline + alcohol): 108 % of control and 123 % of control
T/C (dose: 20.0 mg/kg/injection, schedule: Q01DX001 (ip), vehicle: saline + alcohol): 150 % of control and 195 % of control
T/C (dose: 40.0 mg/kg/injection, schedule: Q01DX001 (ip), vehicle: saline + alcohol): 270 % of control and 309 % of control
T/C (dose: 80.0 mg/kg/injection, schedule: Q01DX001 (ip), vehicle: saline + alcohol): 90 % of control

O=C1C=CC2OC(c3ccccc3)C(O)C2O1 (stereo not drawn)
T/C [3]: 101 % of control
T/C [4]: 114 % of control
T/C [6]: 119 % of control

CC[C@@]1(O)CC(OC2CC(N3CCOCC3)C(O)C(C)O2)c2c(O)c3c(c(O)c2[C@H]1O)C(=O)c1cccc(O)c1C3=O (stereo partly drawn)
T/C (dose: 3.0 mg/kg/injection, schedule: Q04DX003 (iv), vehicle: saline): 160 % of control

O=C1NC2(CCCCC2)C(=O)N1CCN(CCCl)CCCl
T/C (dose: 2.6 mg/kg/injection, schedule: Q01DX009 (ip), vehicle: Klucel (hydroxypropylcellulose) (HPC)): 195 % of control
T/C (dose: 4.0 mg/kg/injection, schedule: Q01DX009 (ip), vehicle: Klucel (hydroxypropylcellulose) (HPC)): 236 % of control
T/C (dose: 6.0 mg/kg/injection, schedule: Q01DX009 (ip), vehicle: Klucel (hydroxypropylcellulose) (HPC)): 226 % of control
T/C (dose: 9.0 mg/kg/injection, schedule: Q01DX009 (ip), vehicle: Klucel (hydroxypropylcellulose) (HPC)): 239 % of control

CC[C@]1(O)C[C@H]2CN(CCc3c([nH]c4ccccc34)[C@@](C(=O)OC)(c3cc4c(cc3OC)N(C)[C@H]3[C@@](O)(C(=O)OC)[C@H](OC(C)=O)[C@]5(CC)C=CCN6CC[C@]43[C@@H]65)C2)C1
T/C (dose: 0.5 mg/kg/injection, schedule: Q04DX003 (ip), vehicle: saline): 101 % of control
T/C (dose: 1.0 mg/kg/injection, schedule: Q04DX003 (ip), vehicle: saline): 100 % of control
T/C (dose: 2.0 mg/kg/injection, schedule: Q04DX003 (ip), vehicle: saline): 100 % of control
T/C (dose: 4.0 mg/kg/injection, schedule: Q04DX003 (ip), vehicle: saline): 83 % of control
T/C (dose: 8.0 mg/kg/injection, schedule: Q04DX003 (ip), vehicle: saline): 57 % of control

CCN(CC)CCn1[nH]c2c3ccc(=O)cc3sc3c(NCCN)ccc1c32
T/C (dose: 1.56 mg/kg/injection, schedule: Q01DX005 (ip), vehicle: water): 99 % of control
T/C (dose: 3.12 mg/kg/injection, schedule: Q01DX005 (ip), vehicle: water): 95 % of control
T/C (dose: 6.25 mg/kg/injection, schedule: Q01DX005 (ip), vehicle: water): 106 % of control
T/C (dose: 12.5 mg/kg/injection, schedule: Q01DX005 (ip), vehicle: water): 91 % of control

BrC[P+](CBr)(CBr)CBr
T/C [6]: 109 % of control and 119 % of control
T/C [5]: 115 % of control
T/C (dose: 144.0 mg/kg/injection, schedule: Q01DX005 (ip), vehicle: saline with Tween-80): 111 % of control
T/C (dose: 240.0 mg/kg/injection, schedule: Q01DX005 (ip), vehicle: saline with Tween-80): 112 % of control
T/C (dose: 666.67 mg/kg/injection, schedule: Q01DX005 (ip), vehicle: saline with Tween-80): 166 % of control

CCOC1NC(=O)Oc2ccccc21 (stereo not drawn)
T/C [7]: 101 % of control
T/C [8]: 100 % of control
T/C [9]: 94 % of control
T/C [10]: 87 % of control and 101 % of control and 104 % of control
T/C [11]: 88 % of control and 110 % of control
T/C (dose: 72.0 mg/kg/injection, schedule: Q01DX005 (ip), vehicle: Klucel (hydroxypropylcellulose) (HPC)): 108 % of control
T/C (dose: 100.0 mg/kg/injection, schedule: Q01DX005 (ip), vehicle: Klucel (hydroxypropylcellulose) (HPC)): 104 % of control and 118 % of control
T/C (dose: 120.0 mg/kg/injection, schedule: Q01DX005 (ip), vehicle: Klucel (hydroxypropylcellulose) (HPC)): 116 % of control
T/C (dose: 333.0 mg/kg/injection, schedule: Q01DX005 (ip), vehicle: Klucel (hydroxypropylcellulose) (HPC)): 153 % of control

N[C@@H](Cc1c[nH]c2ccccc12)C(=O)Nc1nncs1
T/C (dose: 18.75 mg/kg/injection, schedule: Q01DX005 (ip), vehicle: saline): 99 % of control
T/C (dose: 37.5 mg/kg/injection, schedule: Q01DX005 (ip), vehicle: saline): 96 % of control
T/C (dose: 75.0 mg/kg/injection, schedule: Q01DX005 (ip), vehicle: saline): 90 % of control
T/C [1]: 92 % of control
T/C [2]: 96 % of control

CC1=C(C(N)=O)C(c2ccccc2)NC(=S)N1 (stereo not drawn)
T/C [7]: 99 % of control
T/C [8]: 101 % of control
T/C [9]: 98 % of control
T/C [10]: 96 % of control and 107 % of control
T/C [11]: 96 % of control

CC[C@]1(O)C[C@H]2CN(CCc3c([nH]c4ccccc34)[C@@](C(=O)OC)(c3cc4c(cc3OC)N(C=O)[C@H]3[C@@](O)(C(=O)OC)[C@H](OC(C)=O)[C@]5(CC)C=CCN6CC[C@]43[C@@H]65)C2)C1
T/C (dose: 0.43 mg/kg/injection, schedule: Q04DX002 (ip), vehicle: saline): 109 % of control
T/C (dose: 0.72 mg/kg/injection, schedule: Q04DX002 (ip), vehicle: saline): 111 % of control
T/C (dose: 1.2 mg/kg/injection, schedule: Q04DX002 (ip), vehicle: saline): 109 % of control
T/C (dose: 2.0 mg/kg/injection, schedule: Q04DX002 (ip), vehicle: saline): 103 % of control
T/C (dose: 3.33 mg/kg/injection, schedule: Q04DX002 (ip), vehicle: saline): 115 % of control

COC(=O)C[C@](O)(CCCC(C)(C)O)C(=O)O[C@@H]1C(OC)=C[C@]23CCCN2CCc2cc4c(cc2[C@H]13)OCO4
T/C (dose: 0.87 mg/kg/injection, schedule: Q01DX009 (ip), vehicle: acid diluted with saline): 104 % of control and 109 % of control
T/C (dose: 1.3 mg/kg/injection, schedule: Q01DX009 (ip), vehicle: acid diluted with saline): 99 % of control

[CH3][Sn]([CH3])([Cl])[c]1cc[c]([Sn]([CH3])([CH3])[Cl])cc1
T/C (dose: 0.19 mg/kg/injection, schedule: Q01DX005 (ip), vehicle: suspension in saline): 96 % of control
T/C (dose: 0.39 mg/kg/injection, schedule: Q01DX005 (ip), vehicle: suspension in saline): 105 % of control
T/C (dose: 0.78 mg/kg/injection, schedule: Q01DX005 (ip), vehicle: suspension in saline): 114 % of control
T/C (dose: 1.56 mg/kg/injection, schedule: Q01DX005 (ip), vehicle: suspension in saline): 114 % of control

COc1ccc2[nH]c3ccc4cc[n+](CCN5CCC(C6CCN(CC[n+]7ccc8ccc9[nH]c%10ccc(OC)cc%10c9c8c7)CC6)CC5)cc4c3c2c1
T/C (dose: 2.0 mg/kg/injection, schedule: Q01DX005 (ip), vehicle: water): 119 % of control
T/C (dose: 4.0 mg/kg/injection, schedule: Q01DX005 (ip), vehicle: water): 123 % of control
T/C (dose: 8.0 mg/kg/injection, schedule: Q01DX005 (ip), vehicle: water): 152 % of control
T/C (dose: 16.0 mg/kg/injection, schedule: Q01DX005 (ip), vehicle: water): 158 % of control
T/C (dose: 32.0 mg/kg/injection, schedule: Q01DX005 (ip), vehicle: water): 163 % of control

COc1ccc(CCN(C)CCCC(C#N)(c2ccc(OC)c(OC)c2)C(C)C)cc1OC (stereo not drawn)
T/C (dose: 8.0 mg/kg/injection, schedule: Q03HX006 (ip), vehicle: saline): 110 % of control
T/C (dose: 16.0 mg/kg/injection, schedule: Q03HX006 (ip), vehicle: saline): 104 % of control
T/C (dose: 32.0 mg/kg/injection, schedule: Q03HX006 (ip), vehicle: saline): 103 % of control

OC(CBr)C(O)C(O)C(O)CBr (stereo not drawn)
T/C (dose: 30.0 mg/kg/injection, schedule: Q01DX009 (ip), vehicle: Klucel (hydroxypropylcellulose) (HPC)): 162 % of control

O=P1(N(CCCl)CCCl)NCCCO1 (stereo not drawn)
T/C (dose: 12.5 mg/kg/injection, schedule: Q01DX005 (ip), vehicle: saline): 154 % of control
T/C (dose: 25.0 mg/kg/injection, schedule: Q01DX005 (ip), vehicle: saline): 165 % of control and 189 % of control
T/C (dose: 50.0 mg/kg/injection, schedule: Q01DX005 (ip), vehicle: saline): 191 % of control and 217 % of control
T/C (dose: 100.0 mg/kg/injection, schedule: Q01DX005 (ip), vehicle: saline): 171 % of control and 309 % of control

COC1CC2C=C(C)/C=C/C=C/C(=O)NC(c3ccccc3)C/C=C/CCC(O)CC(=O)C2=C1O (stereo not drawn)
T/C [7]: 101 % of control
T/C [8]: 116 % of control
